Assay results from patent US20170190671A1, “BIS(ARYL)CATECHOL DERIVATIVES AS HERBICIDES” (E I DU PONT DE NEMOURS AND COMPANY, priority 2014, published 2017).

Tests used:
Format in all cases: in vivo
[1] = test system: giant foxtail (Setaria faberii); experiment: Test A postemergence; settings: 0 to 100 scale
Text: (§1) Seeds of plant species selected from barnyardgrass (Echinochloa crus-galli), kochia (Kochia scoparia), ragweed (common ragweed, Ambrosia elatior), Italian ryegrass (Lolium multiflorum), large (Lg) crabgrass (Digitaria sanguinalis), giant foxtail (Setaria faberii), morningglory (Ipomoea spp.), pigweed (Amaranthus retroflexus), velvetleaf (Abutilon theophrasti), wheat (Triticum aestivum), and corn (Zea mays) were planted into a blend of loam soil and sand and treated preemergence with a directed soil spray using test chemicals formulated in a non-phytotoxic solvent mixture which included a surfactant.
(§2) At the same time, plants selected from these crop and weed species and also blackgrass (Alopecurus myosuroides), and galium (catchweed bedstraw, Galium aparine) were planted in pots containing the same blend of loam soil and sand and treated with postemergence applications of test chemicals formulated in the same manner. Plants ranged in height from 2 to 10 cm and were in the one- to two-leaf stage for the postemergence treatment. Treated plants and untreated controls were maintained in a greenhouse for approximately 10 days, after which time all treated plants were compared to untreated controls and visually evaluated for injury. Plant response ratings, summarized in Table A, are based on a 0 to 100 scale where 0 is no effect and 100 is complete control. A dash (-) response means no test result.

[2] = test system: galium (catchweed bedstraw, Galium aparine); experiment: Test A postemergence; settings: 0 to 100 scale
Text: as §1, §2

[3] = test system: barnyardgrass (Echinochloa crus-galli); experiment: Test A postemergence; settings: 0 to 100 scale
Text: as §1, §2

[4] = test system: Italian ryegrass (Lolium multiflorum); experiment: Test A postemergence; settings: 0 to 100 scale
Text: as §1, §2

[5] = test system: pigweed (Amaranthus retroflexus); experiment: Test A postemergence; settings: 0 to 100 scale
Text: as §1, §2

[6] = test system: ragweed (common ragweed, Ambrosia elatior); experiment: Test A postemergence; settings: 0 to 100 scale
Text: as §1, §2

[7] = test system: blackgrass (Alopecurus myosuroides); experiment: Test A postemergence; settings: 0 to 100 scale
Text: as §1, §2

[8] = test system: wheat (Triticum aestivum); experiment: Test A postemergence; settings: 0 to 100 scale
Text: as §1, §2

[9] = test system: corn (Zea mays); experiment: Test A postemergence; settings: 0 to 100 scale
Text: as §1, §2

[10] = test system: kochia (Kochia scoparia); experiment: Test A postemergence; settings: 0 to 100 scale
Text: as §1, §2

[11] = test system: giant foxtail (Setaria faberii); experiment: Test A preemergence; settings: for Plant response rating, Foxtail, Giant: 0 to 100 scale
Text: as §1, §2

[12] = test system: barnyardgrass (Echinochloa crus-galli); experiment: Test A preemergence; settings: for Plant response rating, Barnyardgrass: 0 to 100 scale
Text: as §1, §2

[13] = test system: Italian ryegrass (Lolium multiflorum); experiment: Test A preemergence; settings: for Plant response rating, Ryegrass, Italian: 0 to 100 scale
Text: as §1, §2

[14] = test system: pigweed (Amaranthus retroflexus); experiment: Test A preemergence; settings: for Plant response rating, Pigweed: 0 to 100 scale
Text: as §1, §2

[15] = test system: ragweed (common ragweed, Ambrosia elatior); experiment: Test A preemergence; settings: for Plant response rating, Ragweed: 0 to 100 scale
Text: as §1, §2

[16] = test system: kochia (Kochia scoparia); experiment: Test A preemergence; settings: for Plant response rating, Kochia: 0 to 100 scale
Text: as §1, §2

[17] = test system: ducksalad (Heteranthera limosa); experiment: Test B flooded paddy; settings: 250 g ai/ha, Flood, 13 to 15 days, scale 0 (no effect) to 100 (complete control)
Text: (§3) At time of treatment, test pots were flooded to 3 cm above the soil surface, treated by application of test compounds directly to the paddy water, and then maintained at that water depth for the duration of the test. Treated plants and controls were maintained in a greenhouse for 13 to 15 days, after which time all species were compared to controls and visually evaluated. […] A dash (-) response means no test result.

[18] = test system: rice (Oryza sativa); experiment: Test B flooded paddy; settings: 250 g ai/ha, Flood, 13 to 15 days, scale 0 (no effect) to 100 (complete control)
Text: as §3

[19] = test system: barnyardgrass (Echinochloa crus-galli); experiment: Test B flooded paddy; settings: 250 g ai/ha, Flood, 13 to 15 days, scale 0 (no effect) to 100 (complete control)
Text: as §3

[20] = test system: sedge, umbrella (small-flower umbrella sedge, Cyperus difformis); experiment: Test B flooded paddy; settings: 250 g ai/ha, Flood, 13 to 15 days, scale 0 (no effect) to 100 (complete control)
Text: as §3

[21] = 31 g ai/ha, 0 to 100 scale (0 no effect, 100 complete control)

Compound	Plant response rating, Foxtail, Giant ([1]; 125 g ai/ha)	Plant response rating, Galium ([2]; 125 g ai/ha)	Plant response rating, Barnyardgrass ([3]; 125 g ai/ha)	Plant response rating, Ryegrass, Italian ([4]; 125 g ai/ha)	Plant response rating, Pigweed ([5]; 125 g ai/ha)	Plant response rating, Ragweed ([6]; 125 g ai/ha)	Plant response rating, Blackgrass ([7]; 125 g ai/ha)	Plant response rating, Wheat ([8]; 125 g ai/ha)	Plant response rating, Corn ([9]; 125 g ai/ha)	Plant response rating, Kochia ([10]; 125 g ai/ha)	Plant response rating, Foxtail, Giant ([11]; 125 g ai/ha)	Plant response rating, Barnyardgrass ([12]; 125 g ai/ha)	Plant response rating, Ryegrass, Italian ([13]; 125 g ai/ha)	Plant response rating, Pigweed ([14]; 125 g ai/ha)	Plant response rating, Ragweed ([15]; 125 g ai/ha)	Plant response rating, Kochia ([16]; 125 g ai/ha)	Plant response rating, Ducksalad [17]	Plant response rating, Rice [18]	Plant response rating, Barnyardgrass [19]	Plant response rating, Sedge, Umbrella [20]	also measured
N#Cc1cccc(Oc2ncc(Cl)cn2)c1Oc1ccc(C(F)(F)F)nc1 [Compound 13]	0	0	0	0	10	0	0	0	0	0	0	0	0	0	0	0	0	0	0	0	Plant response rating, Foxtail, Giant ([1]; 500 g ai/ha): 0; Plant response rating, Galium ([2]; 500 g ai/ha): 0; Plant response rating, Barnyardgrass ([3]; 500 g ai/ha): 0; Plant response rating, Ryegrass, Italian ([4]; 500 g ai/ha): 0; Plant response rating, Pigweed ([5]; 500 g ai/ha): 40; Plant response rating, Ragweed ([6]; 500 g ai/ha): 0; Plant response rating, Blackgrass ([7]; 500 g ai/ha): 0; Plant response rating, Wheat ([8]; 500 g ai/ha): 0; Plant response rating, Corn ([9]; 500 g ai/ha): 0; Plant response rating, Kochia ([10]; 500 g ai/ha): 0; Plant response rating, Foxtail, Giant ([11]; 500 g ai/ha): 0; Plant response rating, Barnyardgrass ([12]; 500 g ai/ha): 0; Plant response rating, Ryegrass, Italian ([13]; 500 g ai/ha): 0; Plant response rating, Pigweed ([14]; 500 g ai/ha): 0; Plant response rating, Ragweed ([15]; 500 g ai/ha): 0; Plant response rating, Kochia ([16]; 500 g ai/ha): 0
N#Cc1cccc(Oc2ncc(Cl)cn2)c1Oc1ccc(C(F)(F)F)cn1 [Compound 14]	20	50	0	0	50	0	30	0	0	0	0	0	0	80	0	0	30	15	0	0	Plant response rating, Foxtail, Giant ([1]; 31 g ai/ha): 0; Plant response rating, Galium ([2]; 31 g ai/ha): 40; Plant response rating, Barnyardgrass ([3]; 31 g ai/ha): 0; Plant response rating, Ryegrass, Italian ([4]; 31 g ai/ha): 0; Plant response rating, Pigweed ([5]; 31 g ai/ha): 0; Plant response rating, Ragweed ([6]; 31 g ai/ha): 0; Plant response rating, Blackgrass ([7]; 31 g ai/ha): 0; Plant response rating, Wheat ([8]; 31 g ai/ha): 0; Plant response rating, Corn ([9]; 31 g ai/ha): 0; Plant response rating, Kochia ([10]; 31 g ai/ha): 0; Foxtail, Giant plant response rating [11, 21]: 0; Barnyardgrass plant response rating [12, 21]: 0; Ryegrass, Italian plant response rating [13, 21]: 0; Pigweed plant response rating [14, 21]: 40; Ragweed plant response rating [15, 21]: 0; Kochia plant response rating [16, 21]: 0
